Drawing on US9034861B2, “MEK inhibitors useful in the treatment of diseases” (Allomek Therapeutics LLC, priority 2009, dated 2015), this text covers IC50 for 13 compounds.

Where two headings read alike, the source gives them in different places.

Experiment [1] has as its target T1, recombinant full-length human GST-MEK1 (Homo sapiens, UniProt Q02750).
T1 construct: Purified recombinant full-length human GST-MEK1; GST; purchased Cell Signaling Technology, Inc (Beverly, Mass., USA)
Description: MEK Enzyme Inhibitory Assay (ADP-Glo). In kind it is biochemical. How it is done:
Materials and preparation of reagents: Purified recombinant full-length human GST-MEK1 was purchased from Cell Signaling Technology, Inc (Beverly, Mass., USA). MAP kinase substrate Erk1/Erk2 peptide was purchased from Enzo Life Sciences (Plymouth Meeting, Pa., USA).
Determination of enzymatic activity: Compounds were diluted three-fold in dimethylsulfoxide (DMSO) ranging from 1 mM to 1.37 μM concentration. A typical 20-microliter assay contained 80 ng MEK1, 4 μg Erk1/Erk2 peptide, 100 μM or 1 mM ATP, 1 μM to 1.37 nM test compound in 1× assay buffer containing 5 mM MOPS, pH 7.2, 2.5 mM β-glycerophosphate, 1 mM EGTA, 0.4 mM EDTA, 5 mM MgCl2, 0.05 mM DTT. Enzyme reaction was incubated at room temperature for 90 minutes. At the end of kinase reaction, 20 μL of ADP-Glo reagent (Promega, Madison, Wis., USA) was added and incubated at room temperature for 40 minutes. Forty μL of kinase detection reagent (Promega) was added and incubated at room temperature for 1 h. Chemiluminescence was read and IC50s calculated using SoftMax software.
A general note: In ADP-Glo the light output rises with the ADP produced.

The test system of a further experiment is Caki-1 cells. Briefly: Proliferation / cell survival assay (CellTiterGlo, 72 hour). As to conditions: Homo sapiens; Caki (Caki-1), WT; average of two experiments; read-out: IC50, in vitro cell survival / proliferation. The experiment is classed as cell-based. Here is the method:
(§1) In vitro studies of variety of tumor cells lines with prevalent mutations in RAS/RAF genes were performed for anti-proliferative activity (functional assay). This was compared with wild type cell line for selectivity. MEK kinase assay was performed in the presence and in the absence of ATP to define its allosteric inhibitory mode of action; Effect on ERK phosphorylation was studied to establish its cellular mechanism of action.
(§2) Colo205, Caki-1, HepG2, HCT116 and HT29 cells were obtained from American Type Culture Collection. Colo205, Caki-1, HepG2 cells were grown in RPMI 1640 medium supplemented with L-glutamine (Invitrogen) and 10% Fetal Bovine Serum (Hyclone) at 37° C. in a humidified, 5% CO2 incubator. HCT116 and HT29 cells were grown in DMEM medium supplemented with L-glutamine (Invitrogen) and 10% Fetal Bovine Serum (Hyclone) at 37° C. in a humidified, 5% CO2 incubator.
(§3) Proliferation assay was done by plating 2,000 cells/well in 100 μL of DMEM/10% FBS or RPMI/10% media in a 96-well plate and incubated overnight at 37° C. in a humidified, 5% CO2 incubator. Media was replaced with fresh 100 μL of fresh RPMI/10% FBS media or DMEM/10% FBS media containing various concentrations of the compounds. Compounds were added at 3-fold dilutions, concentrations ranging from 3.3 μM to 4.5 nM. After 72 hour incubation with the compounds at 37° C. in a humidified, 5% CO2 incubator, cell viability was measured in a luminometer after the addition of 100 μL/well CellTiterGlo reagent (Promega). IC50s were calculated using SoftMax software.

The next experiment deals with Colo205 cells. The experiment is described as above. Particulars: Homo sapiens, COLO 205; Colo205, BRAF mutation; average of two experiments; read-out: IC50, in vitro cell survival / proliferation. The experiment is classed as cell-based. Here is the method: as §1, §2, §3
A further experiment has as its system HCT116 cells. The description is as above. In kind it is cell-based. Particulars: Homo sapiens, HCT-116; HCT116, K-Ras mutation; average of two experiments; read-out: IC50, in vitro cell survival / proliferation. How it is done:
as §1, §2, §3

The test system of a further experiment is HT29 cells. Described as above. In kind it is cell-based. How it is done: as §1, §2, §3
Another experiment has as its system HepG2 cells. The description is as above. As to conditions: Homo sapiens; HepG2, N-Ras mutation; average of two experiments; read-out: IC50, in vitro cell survival / proliferation. In kind it is cell-based. Here is the method: as §1, §2, §3
Setting [2] is: Homo sapiens, HT-29, HT29, BRAF mutation, average of two experiments, read-out: IC50, in vitro cell survival / proliferation.
[3] abbreviates: Homo sapiens, HT-29, HT29 proliferation, class symbols, read-out: HT29 IC50.

T1 sequence (Q02750 whole entry): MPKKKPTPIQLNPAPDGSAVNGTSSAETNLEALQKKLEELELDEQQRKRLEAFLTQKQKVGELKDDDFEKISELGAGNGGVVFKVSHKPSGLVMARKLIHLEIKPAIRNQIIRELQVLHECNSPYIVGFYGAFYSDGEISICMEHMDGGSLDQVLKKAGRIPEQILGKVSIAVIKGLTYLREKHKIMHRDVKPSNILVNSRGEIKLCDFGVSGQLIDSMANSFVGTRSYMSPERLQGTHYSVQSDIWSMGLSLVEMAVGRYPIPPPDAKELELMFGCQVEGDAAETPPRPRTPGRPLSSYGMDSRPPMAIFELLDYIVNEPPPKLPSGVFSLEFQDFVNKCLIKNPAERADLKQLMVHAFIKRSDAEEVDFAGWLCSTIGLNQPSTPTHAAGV

Regarding `O=S1(=O)Nc2c(cc(F)c(F)c2Nc2ccc(I)cc2F)OCC(O)C(O)CC12CC2` (racemic) [Example 8], the IC50 is 21 nM in experiment [1]; more than 1000 nM with Caki-1 cells; 17 nM in the experiment on Colo205 cells; 544 nM in the experiment with HCT116 cells; 21 nM with HT29 cells (setting [2]); less than 100 nM in the experiment with HT29 cells (setting [3]). Further, the IC50 in the experiment with HepG2 cells was 15 nM.
For the compound `O=S1(=O)Nc2c(cc(F)c(F)c2Nc2ccc(I)cc2F)OCC(O)C(O)CC12CC2` (single isomer, unassigned) [Example 8a], the IC50 in the experiment with HT29 cells (HT29 proliferation, class symbols, read-out: HT29 IC50) was less than 100 nM.
In the case of `O=S1(=O)Nc2c(cc(F)c(F)c2Nc2ccc(I)cc2F)OCC(O)C(O)CC12CC2` (single isomer, unassigned) [Example 8b], the IC50 in the experiment on HT29 cells (setting [3]) was 100 to 500 nM.
Same read-out and setting: the result for `O=S1(=O)Nc2c(cc(F)c(F)c2Nc2ccc(I)cc2F)OC/C=C/CC12CC2` [Example 1] reads 100 to 500 nM.
The same measure, in the same setting: then `O=S1(=O)Nc2c(cc(F)c(F)c2Nc2ccc(Br)cc2F)OCC(O)C(O)CC12CC2` (centres unmarked) [Example 9], with more than 500 nM; and `O=S1(=O)Nc2c(cc(F)c(F)c2Nc2ccc(I)cc2)OCC(O)C(O)CC12CC2` (centres unmarked) [Example 10], with 100 to 500 nM.
Still for that read-out and setting: then `O=S1(=O)Nc2c(cc(F)c(F)c2Nc2ccc(I)cc2Cl)OCC(O)C(O)CC12CC2` (centres unmarked) [Example 11], with 100 to 500 nM.
For `O=S1(=O)Nc2c(Nc3ccc(I)cc3F)cc(F)cc2OCC(O)C(O)CC12CC2` (centres unmarked) [Example 13], in the experiment with HT29 cells (setting [3]), the IC50 is less than 100 nM.
The same measure, in the same setting: the result for `COc1cc(F)c(NS(=O)(=O)C2(CC(O)CO)CC2)c(Nc2ccc(I)cc2F)c1F` (centres unmarked) [Example 15, N-(3,6-difluoro-2-(2-fluoro-4-iodophenylamino)-4-methoxyphenyl)-1-(2,3-dihydroxypropyl)cyclopropane-1-sulfonamide] reads 100 to 500 nM; that for `COc1cc(F)c(NS(=O)(=O)C2(CC(O)CO)CC2)c(Nc2ccc(Br)cc2F)c1F` (centres unmarked) [Example 16], more than 500 nM; that for `COc1cc(F)c(NS(=O)(=O)C2(CC(O)CO)CC2)c(Nc2ccc(I)cc2F)c1` (centres unmarked) [Example 17], less than 100 nM.
As to `O=S1(=O)Nc2c(cc(F)c(F)c2Nc2ccc(I)cc2F)OCCCCC12CC2` [Example 19], the IC50 in the experiment with HT29 cells (setting [3]) is more than 500 nM.
With `COc1cc(F)c(F)c(Nc2ccc(I)cc2F)c1NS(=O)(=O)C1(C[C@H](O)CO)CC1` [RDEA 119, reference compound], the IC50 is more than 1000 nM in the experiment on Caki-1 cells; 20 nM in the experiment on Colo205 cells; 461 nM with HCT116 cells; 20 nM in the experiment with HT29 cells (setting [2]); 17 nM with HepG2 cells.
